Consider 28 molecules from patent publication US8202865B2, “Oxadiazole derivatives” (Merck Serono SA, priority 2007, dated 2012).

Broadly, the EC50 is the concentration that produces a half-maximal response.

In the assay the target is T1, S1P1 (Homo sapiens, UniProt P21453).
T1 construct: expressed in transfected cells; host or cells: CHO cells (membranes)
T1 sequence (P21453 whole entry, species assumed): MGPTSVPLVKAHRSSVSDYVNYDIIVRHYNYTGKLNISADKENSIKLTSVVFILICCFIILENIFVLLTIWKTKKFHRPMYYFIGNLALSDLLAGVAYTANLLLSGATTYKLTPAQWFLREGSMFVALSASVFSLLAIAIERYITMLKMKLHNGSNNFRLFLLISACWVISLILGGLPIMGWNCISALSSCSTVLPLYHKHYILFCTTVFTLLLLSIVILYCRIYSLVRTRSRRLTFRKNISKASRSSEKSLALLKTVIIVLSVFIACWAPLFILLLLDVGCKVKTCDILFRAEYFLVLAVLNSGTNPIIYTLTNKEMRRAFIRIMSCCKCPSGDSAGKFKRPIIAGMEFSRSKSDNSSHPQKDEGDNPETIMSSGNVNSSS
As to the kind of experiment: 35S-GTPγS binding, S1P1 membranes. Format: biochemical. To be noted: membranes from CHO cells expressing S1P1; 60 min 30° C. How it is done:
Receptor binding assay: Membranes were prepared from CHO cells expressing S1P1 or S1P3 for use in ligand and […] binding studies. Cells were suspended in 50 mM TRIS, pH 7.4, 2 mM EDTA, 250 mM Sucrose (buffer A) and 1× Complete protease inhibitor cocktail (Roche), and disrupted at 4° C. by N2 decompression using a cell disruption bomb (Parr Instrument). Following centrifugation at 1000 RPM for 10 min at 4° C., the supernatant was suspended in buffer A and centrifuged again at 19000 RPM for 60 min at 4° C. The pellet was then suspended in 10 mM HEPES, pH 7.4, 1 mM EDTA, 250 mM Sucrose (Buffer B), and 1× Complete EDTA-free protease inhibitor cocktail and homogenized using a potter. Membranes were flash frozen in liquid N2 and stored at −80° C. [33P]sphingosine 1-phosphate (3000 Ci/mmol; American Radiolabeled Chemicals, Inc.) was added to test compounds in DMSO. Membranes and WGA SPA beads (GE Healthcare) were added to give a final volume of 100 μl in 96-well plates with assay concentrations of 25 pM or 10 pM [33P]sphingosine 1-phosphate (respectively for S1P1 or S1P3), 50 mM HEPES, pH 7.5, 5 mM MgCl2, 100 mM NaCl, 0.4% fatty acid-free BSA, 1-5 μg/well of proteins and 100 μg/well of WGA SPA beads. Binding was performed for 60 min at RT on a shaker and bound radioactivity was measured on a PerkinElmer 1450 MicroBeta counter. Specific binding was calculated by subtracting remaining radioactivity in the presence of 1000-fold excess of unlabeled S1P. Binding data were analyzed using the GraphPad Prism program.
Measurements of ^35S-GTPγS Binding: Membranes (1 to 10 μg protein) prepared as described above, were incubated in 96-well Scintiplates (PerkinElmer) with test compounds diluted in DMSO, in 180 μl of 20 mM HEPES, pH 7.4, 10 mM MgCl2, 2 μg/well Saponin, 0.2% fatty acid free BSA (Assay buffer), 140 mM NaCl and 1.7 μM GDP. The assay was initiated with the addition of 20 μl of 1.5 nM [35S]-GTPγS (1100 Ci/mmol; GE Healthcare) in assay buffer. After 60 min incubation at 30° C. on a shaker, plates were centrifuged for 10 min at 2000 RPM. Supernatant was discarded and membrane bound radioactivity was measured on a PerkinElmer 1450 MicroBeta counter. Triplicate samples were averaged and expressed as % response relative to S1P activation in absence of compound (n=2).
For orientation: GTPγS is a poorly hydrolysed GTP analogue; its binding reports G protein activation.
`COCc1cc(-c2nc(-c3ccc(C(=O)O)c(F)c3)no2)ccc1-c1ccc(F)cc1C` [Example 94, 2-fluoro-4-{5-[4′-fluoro-2-(methoxymethyl)-2′-methylbiphenyl-4-yl]-1,2,4-oxadiazol-3-yl}benzoic acid] returned a 50% effective concentration (EC50) of 513 nM.

On to `COCC#Cc1cc(-c2nc(-c3ccc(C(=O)O)c(F)c3)no2)ccc1-c1ccccc1C` [Example 96, 2-fluoro-4-{5-[2-(3-methoxyprop-1-yn-1-yl)-2′-methylbiphenyl-4-yl]-1,2,4-oxadiazol-3-yl}benzoic acid], for which the EC50 was 462 nM.

With `COCc1cc(-c2nc(-c3ccc(C(=O)O)c(F)c3)no2)ccc1-c1ccccc1Cl` [Example 98, 4-{5-[2′-chloro-2-(methoxymethyl)biphenyl-4-yl]-1,2,4-oxadiazol-3-yl}-2-fluorobenzoic acid], a half-maximal effect (EC50) was put at 67 nM.

`Cc1ccccc1-c1ccc(-c2nc(-c3ccc(C(=O)O)c(F)c3)no2)cc1O` [Example 99, 2-fluoro-4-[5-(2-hydroxy-2′-methylbiphenyl-4-yl)-1,2,4-oxadiazol-3-yl]benzoic acid] returned an EC50 of 7700 nM.

The molecule `COCCCc1cc(-c2nc(-c3ccc(C(=O)O)c(F)c3)no2)ccc1-c1ccccc1C` [Example 100, 2-fluoro-4-{5-[2-(3-methoxypropyl)-2′-methylbiphenyl-4-yl]-1,2,4-oxadiazol-3-yl}benzoic acid] displayed an EC50 of 538 nM.

In turn, `Cc1ccccc1-c1ccc(-c2nc(-c3ccc(C(=O)O)c(F)c3)no2)cc1OC(C)C` [Example 101, 2-fluoro-4-[5-(2-isopropoxy-2′-methylbiphenyl-4-yl)-1,2,4-oxadiazol-3-yl]benzoic acid] had an EC50 of 233 nM.

As for `COCCOc1cc(-c2nc(-c3ccc(C(=O)O)c(F)c3)no2)ccc1-c1ccccc1C` [Example 103, 2-fluoro-4-{5-[2-(2-methoxyethoxy)-2′-methylbiphenyl-4-yl]-1,2,4-oxadiazol-3-yl}benzoic acid], the EC50 amounted to 257 nM.

For `Cc1ccccc1-c1ccc(-c2nc(-c3ccc(C(=O)O)c(F)c3)no2)cc1OCC(C)C` [Example 104, 2-fluoro-4-[5-(2-isobutoxy-2′-methylbiphenyl-4-yl)-1,2,4-oxadiazol-3-yl]benzoic acid], it took 800 nM to reach a half-maximal effect (EC50).

For the molecule `Cc1ccccc1-c1ccc(-c2nc(-c3ccc(C(=O)O)c(F)c3)no2)cc1OCC1CC1` [Example 105, 4-{5-[2-(cyclopropylmethoxy)-2′-methylbiphenyl-4-yl]-1,2,4-oxadiazol-3-yl}-2-fluorobenzoic acid], the EC50 worked out at 103 nM.

`COCc1cc(-c2nc(-c3cc(C(=O)OC)ccc3OC)no2)ccc1-c1ccccc1C` [Example 106, methyl 4-methoxy-3-{5-[2-(methoxymethyl)-2′-methylbiphenyl-4-yl]-1,2,4-oxadiazol-3-yl}benzoate] had a 50% effective concentration (EC50) of 50 nM.

For the molecule `COCc1cc(-c2nc(-c3cc(C(=O)O)ccc3OC)no2)ccc1-c1ccccc1C` [Example 107, 4-methoxy-3-{5-[2-(methoxymethyl)-2′-methylbiphenyl-4-yl]-1,2,4-oxadiazol-3-yl}benzoic acid], it took 133 nM to reach a half-maximal effect (EC50).

`COCc1cc(-c2nc(-c3ccc(Cl)c(C(=O)O)c3)no2)ccc1-c1ccccc1C` [Example 108, 2-chloro-5-{5-[2-(methoxymethyl)-2′-methylbiphenyl-4-yl]-1,2,4-oxadiazol-3-yl}benzoic acid]: the response was half-maximal at 163 nM (EC50).

As to `COCc1cc(-c2nc(-c3cc(Cl)c(C(=O)O)cc3F)no2)ccc1-c1ccccc1C` [Example 109, 2-chloro-5-fluoro-4-{5-[2-(methoxymethyl)-2′-methylbiphenyl-4-yl]-1,2,4-oxadiazol-3-yl}benzoic acid], the EC50 worked out at 90 nM.

For `COCc1cc(-c2nc(-c3ccc(C(=O)OC)c(F)c3)no2)ccc1OC(C)C` [Example 110, methyl 2-fluoro-4-{5-[4-isopropoxy-3-(methoxymethyl)phenyl]-1,2,4-oxadiazol-3-yl}benzoate], the EC50 stood at 240 nM.

`COCc1cc(-c2nc(-c3ccc(C(=O)O)c(F)c3)no2)ccc1OC(C)C` [Example 111, 2-fluoro-4-{5-[4-isopropoxy-3-(methoxymethyl)phenyl]-1,2,4-oxadiazol-3-yl}benzoic acid] gave an EC50 of 610 nM.

With `COCc1cc(-c2nc(-c3cc(F)c(C(=O)O)cc3OC)no2)ccc1-c1ccccc1C` [Example 112, 2-fluoro-5-methoxy-4-{5-[2-(methoxymethyl)-2′-methylbiphenyl-4-yl]-1,2,4-oxadiazol-3-yl}benzoic acid], the EC50 stood at 102 nM.

In turn, `COCc1cc(-c2nc(-c3ccc(C(=O)OC)c(F)c3)no2)ccc1N1CCCCC1C` (stereo not shown) [Example 113, methyl 2-fluoro-4-{5-[3-(methoxymethyl)-4-(2-methylpiperidin-1-yl)phenyl]-1,2,4-oxadiazol-3-yl}benzoate] registered an EC50 of 485 nM.

`COCc1cc(-c2nc(-c3cc(Cl)c(C(=O)O)cc3OC)no2)ccc1-c1ccccc1C` [Example 115, 2-chloro-5-methoxy-4-{5-[2-(methoxymethyl)-2′-methylbiphenyl-4-yl]-1,2,4-oxadiazol-3-yl}benzoic acid]: the EC50 was 246 nM.

`COCc1cc(-c2nc(-c3ccc(C(=O)N(C)CC(=O)OC)c(F)c3)no2)ccc1-c1ccccc1C` [Example 116, methyl N-(2-fluoro-4-{5-[2-(methoxymethyl)-2′-methylbiphenyl-4-yl]-1,2,4-oxadiazol-3-yl}benzoyl)-N-methylglycinate] displayed an EC50 of 240 nM.

Molecule `COCc1cc(-c2nc(-c3ccc(C(=O)NCCC(=O)OC)c(F)c3)no2)ccc1-c1ccccc1C` [Example 117, Methyl N-(2-fluoro-4-{5-[2-(methoxymethyl)-2′-methylbiphenyl-4-yl]-1,2,4-oxadiazol-3-yl}benzoyl)-beta-alaninate] returned an EC50 of 9 nM.

Molecule `COCc1cc(-c2nc(-c3ccc(C(=O)NC4(C(=O)O)CC4)c(F)c3)no2)ccc1-c1ccccc1C` [Example 120, 1-[(2-fluoro-4-{5-[2-(methoxymethyl)-2′-methylbiphenyl-4-yl]-1,2,4-oxadiazol-3-yl}benzoyl)amino]cyclopropanecarboxylic acid] had an EC50 of 58 nM.

`CCOC(=O)CC(C)NC(=O)c1ccc(-c2noc(-c3ccc(-c4ccccc4C)c(COC)c3)n2)cc1F` (stereo not shown) [Example 121, Ethyl 3-[(2-fluoro-4-{5-[2-(methoxymethyl)-2′-methylbiphenyl-4-yl]-1,2,4-oxadiazol-3-yl}benzoyl)amino]butanoate]: the EC50 turned out to be 281 nM.

`COCc1cc(-c2nc(-c3ccc(C(=O)N(C)CC(=O)O)c(F)c3)no2)ccc1-c1ccccc1C` [Example 125, N-(2-fluoro-4-{5-[2-(methoxymethyl)-2′-methylbiphenyl-4-yl]-1,2,4-oxadiazol-3-yl}benzoyl)-N-methylglycine] had an EC50 of 86 nM.

With `COCc1cc(-c2nc(-c3ccc(C(=O)NCCCC(=O)OC)c(F)c3)no2)ccc1-c1ccccc1C` [Example 126, Methyl 4-[(2-fluoro-4-{5-[2-(methoxymethyl)-2′-methylbiphenyl-4-yl]-1,2,4-oxadiazol-3-yl}benzoyl)amino]butanoate], the response was half-maximal at 35 nM (EC50).

Consider `COCc1cc(-c2nc(-c3ccc(C(=O)NC(C)(C)C(=O)OC)c(F)c3)no2)ccc1-c1ccccc1C` [Example 128, Methyl N-(2-fluoro-4-{5-[2-(methoxymethyl)-2′-methylbiphenyl-4-yl]-1,2,4-oxadiazol-3-yl}benzoyl)-2-methylalaninate], for which the EC50 came out at 154 nM.

In turn, `COCc1cc(-c2nc(-c3ccc(C(=O)NC(C)(C)C(=O)O)c(F)c3)no2)ccc1-c1ccccc1C` [Example 129, N-(2-fluoro-4-{5-[2-(methoxymethyl)-2′-methylbiphenyl-4-yl]-1,2,4-oxadiazol-3-yl}benzoyl)-2-methylalanine] returned an EC50 of 40 nM.

Regarding `COCc1cc(-c2nc(-c3cccc(C(=O)NCC(=O)OC)c3)no2)ccc1-c1ccccc1C` [Example 130, Methyl N-(3-{5-[2-(methoxymethyl)-2′-methylbiphenyl-4-yl]-1,2,4-oxadiazol-3-yl}benzoyl)glycinate], the EC50 came to 8.6 nM.

For `CCOC(=O)C1(NC(=O)c2cccc(-c3noc(-c4ccc(-c5ccccc5C)c(COC)c4)n3)c2)CC1` [Example 131, Ethyl 1-[(3-{5-[2-(methoxymethyl)-2′-methylbiphenyl-4-yl]-1,2,4-oxadiazol-3-yl}benzoyl)amino]cyclopropanecarboxylate], the EC50 was determined as 35 nM.
